Earlier results in patent publication US6998112B2, “Sleep inducing toothpaste made with natural herbs and a natural hormone” (priority 2003, dated 2006).

Details: in vivo

## Melatonin
  adverse effects: isolated reports of exacerbation of depression and fatigue
